Converted amounts (≈) assume the structure as drawn. “And” between values parts separate entries of the source, which are not always exact repeats. Identical values can stand only once.
How the values were obtained:
[1] = molecular target: amyloid peptide (Homo sapiens, UniProt P05067); experiment: Inhibition of amyloid fibrillogenesis, Congo Red assay
[2] = molecular target: PrP^Sc in 22L-infected N2a cells (Mus musculus, UniProt P04925); experiment: cell-based; details: for IC50: IC50 for purging of PRP^Sc in 22L-infected N2a cells
Chain of PrP^Sc in 22L-infected N2a cells (P04925 23-230 limits assumed): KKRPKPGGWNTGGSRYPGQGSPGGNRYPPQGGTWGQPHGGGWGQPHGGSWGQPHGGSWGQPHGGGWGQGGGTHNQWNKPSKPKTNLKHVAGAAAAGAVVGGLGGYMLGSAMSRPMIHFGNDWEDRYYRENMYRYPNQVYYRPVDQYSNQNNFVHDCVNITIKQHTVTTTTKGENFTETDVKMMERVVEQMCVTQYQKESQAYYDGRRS

[3] = molecular target: PrP^Sc in RML-infected N2a cells (Mus musculus, UniProt P04925); experiment: cell-based; details: for IC50: IC50 for purging of PRP^Sc in RML-infected N2a cells
Chain of PrP^Sc in RML-infected N2a cells (P04925 23-230 limits assumed): as above

[4] = test system: RML-infected N2a cells
[5] = test system: 22L-infected N2a cells; experiment: Toxicity seen in 22L-infected N2a cell assay (light microscopy); format: cell-based, mouse; details: @ 10 μM
Description: 10 mM solutions of tafenoquine were prepared and diluted in DMSO and then into PBS prior to being introduced to the cell medium. 5 μL of solutions were added to the cell medium. DMSO concentrations in the cell media were never higher than 0.5% (v/v). After tafenoquine was added, the cells were incubated for 5 days at 37° C. in a CO2 incubator before being lysed. Prior to cell lysis, the cells were inspected by light microscopy for toxicity, bacterial contamination, and density compared to controls. After removal of the cell media, 50 μL of lysis buffer was added to each well. Lysis buffer was composed of 0.5% (w/v) Triton X-100, 0.5% (w/v) sodium deoxycholate, 5 mM Tris-HCl, pH 7.4 at 4° C., 5 mM EDTA, and 150 mM NaCl. Five minutes after adding lysis buffer, 25 μL of 0.1 mg/mL PK (Calbiochem) in TBS was added to each well and incubated at 37° C. for 50 minutes. 225 μL of 1 mM Pefabloc (Boehringer Mannheim) was then added to each well to inhibit PK activity. 250 μL of 1 mM Pefabloc was added to samples that were not PK-treated.

[6] = molecular target: T1, Aβ42 (Homo sapiens, UniProt P05067); experiment: Amyloid fibrillogenesis gel assay; format: biochemical; details: 40 μM Aβ42, 3-100 μg/ml compound, 5 days
T1 construct: 40 μM fresh Aβ42, Lanes 3-7: 40 μM Aβ42 with mefloquin
T1 sequence (P05067 672-713, species assumed): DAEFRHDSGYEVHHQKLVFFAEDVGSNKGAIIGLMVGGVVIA
Description: (§1) The 40 μM solution was used in fibrillogenesis assay, as described below. The 60 μM peptide solution was undisturbed for six months and allowed to form fibrils, and was utilized in a fibril disassociation assay.
(§2) Mefloquin was dissolved in DMSO and diluted 100 fold into the final reaction mixture, keeping the DMSO concentration constant at 1% (v/v). After incubation, 10 ul of each sample was mixed with 2.5 μl of 4×SDS-sample buffer (Invitrogen), and loaded onto a precast 12% BT gel (Invitrogen). The electrophoresis was run with MES running buffer (Invitrogen) at 200V, and the gels were stained using a silverXpress silver staining kit (Invitrogen). The lane assignments are as follows: Lane 1: molecular weight markers, 2; 40 μM fresh Aβ42, Lanes 3-7: 40 μM Aβ42 with mefloquin from 0, 3, 10, 30 to 100 μg/ml. Lanes 8-12: 10 μl Aβ42 fibrils with mefloquin from 0, 3, 10, 30 to 100 μg/ml.
(§3) Gels were photographed and scanned, and the band densities was analyzed using NIH Imagequant, version 5.2 (GE Healthcare, Sunnyvale, Calif.).

[7] = molecular target: yeast prion protein Sup-NM (Saccharomyces cerevisiae, UniProt P05453); experiment: biochemical; details: for IC50: IC50 for inhibition of Sup35 yeast prion polymerization
Chain of yeast prion protein Sup-NM (P05453 1-254 limits assumed): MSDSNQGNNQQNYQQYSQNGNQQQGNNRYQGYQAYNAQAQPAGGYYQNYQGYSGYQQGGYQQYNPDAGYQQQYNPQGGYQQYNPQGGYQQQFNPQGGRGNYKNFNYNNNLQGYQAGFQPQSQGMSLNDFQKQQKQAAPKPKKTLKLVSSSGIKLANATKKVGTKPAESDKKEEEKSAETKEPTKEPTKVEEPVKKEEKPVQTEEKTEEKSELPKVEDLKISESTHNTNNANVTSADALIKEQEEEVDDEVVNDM

[8] = test system: yeast PSI^+ (the yeast prion protein Sup35); experiment: microbe, parasite or virus in culture; format: cell-based
[9] = molecular target: Aβ42 fibrils (Homo sapiens, UniProt P05067); experiment: Fibril disassociation gel assay; format: biochemical; details: 3-100 μg/ml compound
Chain of Aβ42 fibrils (P05067 672-713, species assumed): as the sequence (P05067 672-713, species assumed) above
Description: as §1, §2, §3

Chain of amyloid peptide (P05067 672-713): as the sequence (P05067 672-713, species assumed) above

With `CCCCCCN(CCCCCC)CCCCCCNc1cc(OC)cc2c(C)ccnc12` the IC50 [1] was < 11 µM.

Work on `COc1cc(NC(C)CCC(C)(C)N)c2nccc(C)c2c1Oc1cccc(C(F)(F)F)c1` (stereo not drawn) yielded an IC50 [1] of 32.5 to 65 µM.

With `CCN(CC)CCCC(C)Nc1cc(OC)cc2c(C)ccnc12` (stereo not drawn) the IC50 [2] was 3000 to 5000 nM.

Molecule `COc1cc(NCCCCCNC(C)C)c2nccc(C)c2c1` has an IC50 [1] of ~15.8 µM.

`C=CC1CN2CCC1CC2[C@H](O)c1ccnc2ccc(OC)cc12` (stereo partly drawn) gave an IC50 [3] of 6 µM.

Molecule `CCC1CN2CCC1CC2[C@H](O)c1ccnc2ccc(OC)cc12` (stereo partly drawn) has an IC50 [3] of 12.5 µM.

With `C=CC1CN2CCC1CC2[C@@H](O)c1ccnc2ccc(OC)cc12` (stereo partly drawn) the IC50 [3] was 3 µM.

With `CCC1CN2CCC1CC2[C@@H](O)c1ccnc2ccc(OC)cc12` (stereo partly drawn) the “Toxicity (note in the RML-infected N2a cells column)” value [4] was “(toxic @ μM)”.

`C=CC1CN2CCC1CC2[C@@H](O)c1ccnc2ccccc12` (stereo partly drawn) gave an IC50 [3] of 6 µM.

Molecule `C=CC1CN2CCC1CC2[C@H](O)c1ccnc2ccccc12` (stereo partly drawn) has an IC50 [3] of 18 µM.

`COc1cc(C)c2c(Oc3cccc(C(F)(F)F)c3)c(OC)cc(NC(C)CCCNO)c2n1` (stereo not drawn) gave an IC50 [3] of ~10.4 µM.

`Oc1ccc(Cl)c2cccnc12` was tested, and the “Toxicity (note in the 22L-infected N2a cells column)” value [5] was “Toxic @ 10 μM”.

Molecule `C=CC1CN2CCC1CC2C(O)c1ccnc2ccc(OC)cc12` (stereo not drawn) has an IC50 [2] of 3000 to 5000 nM.

`COc1cc(NC(C)CCCN)c2ncccc2c1` (stereo not drawn) was tested, and the IC50 [3] was < 10 µM.

In the case of `OC(c1cc(C(F)(F)F)nc2c(C(F)(F)F)cccc12)C1CCCCN1` (racemic) [mefloquine, DL-erythro-α-2-piperidyl-2,8-bis(trifluoromethyl)-4-quinolinemethanol, reference compound], the IC50 [2] is reported as 1270 nM and 1200 nM, the “inhibition of fibrillogenesis of amyloid peptide, gel assay (in words)” value [6] is reported as “inhibited fibrillogenesis” and the IC50 [3] is reported as 0.5 µM. The inhibition at 150 µg/mL ([7]; read-out: inhibition of the polymerization of Sup-NM) was ~55%, the “inhibition of the induction of PSI+ (in words)” value [8] was “concentration dependent inhibition” and the “disassociation of amyloid fibrils, gel assay (in words)” value [9] was “increase of monomeric amyloid peptide”.

In the case of `COc1cc(C)c2c(Oc3cccc(C(F)(F)F)c3)c(OC)cc(NC(C)CCCN)c2n1` (racemic) [tafenoquine, (±)-8-[(4-amino-1-methylbutyl)amino]-2,6-dimethoxy-4-methyl-5-(3-trifluoromethylphenoxy)quinoline], the IC50 [2] is reported as > 2200 nM, the IC50 [3] is reported as 0.716 µM and 0.72 µM and the IC50 ([7]; thioflavin T, 25° C.) is reported as 11.2 µM. For the same molecule, the “inhibition of Sup-NM amyloid polymerization (in words)” value ([7]; concentrations up to 200 μg/mL) was “nearly complete inhibition” and the IC50 ([8]; Saccharomyces cerevisiae, 24 h, read-out: IC50 for inhibition of induction of PSI+) was 4.5 µg/mL (≈ 9.71 µM).

With `COc1cc(NC(C)CCCN)c2nccc(C)c2c1Oc1cccc(C(F)(F)F)c1` (stereo not drawn) [compound 3] the IC50 [2] was 508 nM and 1200 nM, the “inhibition of fibrillogenesis of amyloid peptide, gel assay (in words)” value [6] was “inhibited fibrillogenesis” and the IC50 [3] was 0.609 µM and 0.54 µM. The IC50 ([7]; thioflavin T, 25° C.) was ~34.6 µM and 34.6 µM, the IC50 [1] was 23.1 µM and the “disassociation of amyloid fibrils, gel assay (in words)” value [9] was “increase of monomeric amyloid peptide”.

With `COc1cc(CO)c2c(Oc3cccc(C(F)(F)F)c3)c(OC)cc(NC(C)CCCN)c2n1` (stereo not drawn) [compound 8] the IC50 [1] was ~10.4 µM.

“(±)-8-[(4-amino-1-methylbutyl) amino]-2,6-dimethoxy-4-methyl-5-(3-trifluoromethylphenoxy)quinoline [tafenoquine]” was tested, and the “IC50 for purging of PRP^Sc in 22L-infected N2a cells” value [2] was 440 ng/mL, the “IC50 for purging of PRP^Sc in RML-infected N2a cells” value [3] was 332 ng/mL and the “IC50 for inhibition of Sup35 yeast prion polymerization” value ([7]; thioflavin T, 25° C.) was 5.2 ± 1.1 µg/mL. For the same molecule, the “IC50 for inhibition of induction of PSI+” value ([8]; 24 h with 50 μM copper sulfate) was 4.5 µg/mL.

From patent US20070179123A1, “Methods and compositions for treating diseases associated with pathogenic proteins” (priority 2005, published 2007)
